Experimental data as given in article PMC6151598, “Soluble Epoxide Hydrolase Inhibitory Activity of Components Isolated from Apios americana Medik” (Molecules : A Journal of Synthetic Chemistry and Natural …, 2017).
Where “and” joins values, the source holds several entries; their conditions need not be identical. Equal entries are not always repeated.

Tests used:
estrogen receptors = tested on: estrogen receptors; set-up: method as in PMID 23402539, PMID 26806328; conditions: cited from earlier work
[1] = biological target: T1, soluble epoxide hydrolase (sEH) (Homo sapiens, UniProt P34913); experiment: sEH inhibition assay (fluorometric, PHOME substrate); format: biochemical; conditions: for IC50: concentrations 6.2 to 100 μM, triplicate, read-out: IC50, inhibitory activity on sEH; for Inhibitory ratio on sEH: tested at 100 μM, % of the control value
T1 construct: purchased Cayman (Ann Arbor, MI, USA) 10011669
T1 sequence (P34913 1-555): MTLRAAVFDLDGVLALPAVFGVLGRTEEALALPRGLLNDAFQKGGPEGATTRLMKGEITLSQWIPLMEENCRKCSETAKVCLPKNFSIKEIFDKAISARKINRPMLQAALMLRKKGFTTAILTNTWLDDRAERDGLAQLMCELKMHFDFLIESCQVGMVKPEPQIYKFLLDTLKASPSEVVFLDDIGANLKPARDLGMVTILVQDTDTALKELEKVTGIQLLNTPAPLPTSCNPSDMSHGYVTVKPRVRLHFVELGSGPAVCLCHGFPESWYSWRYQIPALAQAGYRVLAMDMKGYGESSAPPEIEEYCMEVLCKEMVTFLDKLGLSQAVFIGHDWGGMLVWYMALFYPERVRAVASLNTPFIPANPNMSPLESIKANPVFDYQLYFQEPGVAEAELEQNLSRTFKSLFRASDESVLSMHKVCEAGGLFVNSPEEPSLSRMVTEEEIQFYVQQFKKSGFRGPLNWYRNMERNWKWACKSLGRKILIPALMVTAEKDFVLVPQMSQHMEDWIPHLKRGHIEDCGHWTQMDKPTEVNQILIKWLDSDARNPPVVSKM
Protocol: The sEH assay was performed as described previously. Briefly, 130 µL of sEH in 25.0 mM Bis-Tris-HCl buffer (pH 7.0) and 20.0 µL of the compounds (1–0.06 mM concentration) diluted in MeOH, were added in 96-well plate, to which 50.0 µL of 20.0 µM PHOME was added in the mixture. After initiating the enzyme reaction at 37 °C, the products by hydrolysis of the substrate were monitored at excitation and emission of 330 and 465 nm for one hour. Inhibitory activity (%) = 100 − [(C40 − C0) − (S40 − S0)/(C40 − C0)] × 100 (1) where C40 and S40 were the fluorescence of the control and inhibitor, respectively, after 40 min, S0 and C0 is the fluorescence of inhibitor and control, respectively, at 0 min.

[2] = biological target: T1, soluble epoxide hydrolase (sEH); experiment: sEH enzyme kinetics (Lineweaver–Burk and Dixon plots); format: biochemical; conditions: for Binding mode (inhibition type): Lineweaver–Burk plot
androgen receptors = tested on: androgen receptors; set-up: method as in PMID 23402539, PMID 26806328; conditions: cited from earlier work

| Binding mode (inhibition type) [2] | Compound | Binding activity with estrogen receptors (estrogen receptors) | IC50 [1] | Inhibitory ratio on sEH [1] | Blocking of [3H]-dihydrotestosterone binding with androgen receptors (androgen receptors) | also measured |
| --- | --- | --- | --- | --- | --- | --- |
| – | O=c1c(-c2ccc(O)cc2O)coc2cc(O)cc(O)c12 [2′-hydroxygenistein] | binding activities | – | – | – | – |
| competitive inhibitor | COc1cc(O)cc2c1C(=O)C1(O)c3ccc(O)cc3OC1O2 (centres unmarked) [Compound 1, 5-methoxy-2,5,7,4′-tetrahydroxy-coumaronochromone] | – | < 50 µM and 43.2 µM | over 50% | – | Ki ([2]; inhibitor 0, 25, 50 μM, substrate 3.1 to 25 μM, read-out: Ki (Dixon plot)): 21 µM |
| mixed inhibitor | O=c1c(-c2ccc(O)cc2)coc2cc(O)cc(O)c12 [Compound 2, genestein] | binding activities | – | – | – | – |
| – | O=c1c(-c2ccc(O)cc2O)coc2cc(O[C@@H]3O[C@H](CO)C(O)[C@H](O)C3O)cc(O)c12 (some centres unmarked) [Compound 6, 2′-hydroxygenistein-7-O-glucoside] | – | – | – | blocked the binding | – |
| – | O=c1c(-c2ccc(O)cc2O)coc2cc(O[C@@H]3O[C@H](CO[C@@H]4O[C@H](CO)[C@@H](O)[C@H](O)[C@H]4O)[C@@H](O)[C@H](O)[C@H]3O)cc(O)c12 [Compound 7, 2′-hydroxygenistein-7-O-gentibioside] | – | – | – | blocked the binding | – |
| – | O=C(O)c1ccc(O)cc1 [Compound 8, 4-hydroxybenzoic acid] | – | 69.3 ± 1.9 µM | over 50% | – | – |
